In assay [1] the test system is Klebsiella pneumoniae. The experiment in a line: Antibacterial activity against Klebsiella pneumoniae MTCC 3384 after 24 hr by disk diffusion method. In kind it is functional. The following applies: for MIC: Klebsiella pneumoniae, MTCC 3384, 24 h. (In agar diffusion tests the substance spreads into inoculated agar from a disc or well.)
The subject of assay [2] is Escherichia coli. The experiment in a line: Induction of Escherichia coli MTCC 1089 DNA cleavage at 50 ug after 2 hr by agarose gel electrophoresis.
Assay [3] has as its system Staphylococcus aureus. Kind of assay: Antibacterial activity against Staphylococcus aureus MTCC 3160 after 24 hr by disk diffusion method. The following applies: for MIC: Staphylococcus aureus, MTCC 3160, 24 h. In kind it is functional.
The test system of assay [4] is Aspergillus niger. Kind of assay: Induction of Aspergillus niger DNA cleavage at 50 ug after 2 hr by agarose gel electrophoresis.
The subject of assay [5] is Mucor fuscus. Kind of assay: Antifungal activity against Mucor fuscus after 3 to 4 days by serial dilution method. In kind it is functional. The conditions noted are these: for MIC: Mucor fuscus.
Assay [6] deals with Aspergillus fumigatus. The experiment in a line: Antifungal activity against Aspergillus fumigatus after 3 to 4 days by serial dilution method. In kind it is functional. The following applies: for MIC: Aspergillus fumigatus.
The subject of assay [7] is Pseudomonas aeruginosa. Kind of assay: Antibacterial activity against Pseudomonas aeruginosa MTCC 1034 after 24 hr by disk diffusion method. In kind it is functional. The following applies: for MIC: Pseudomonas aeruginosa, MTCC 1034, 24 h.
The test system of assay [8] is Aspergillus niger. Kind of assay: Antifungal activity against Aspergillus niger after 3 to 4 days by serial dilution method. In kind it is functional. The conditions noted are these: for MIC: Aspergillus niger.
In assay [9] the test system is Penicillium chrysogenum. The experiment in a line: Antifungal activity against Penicillium chrysogenum after 3 to 4 days by serial dilution method. In kind it is functional. The following applies: for MIC: Penicillium chrysogenum.
Assay [10] relates to Staphylococcus aureus. The experiment in a line: Induction of Staphylococcus aureus MTCC 3160 DNA cleavage at 50 ug after 2 hr by agarose gel electrophoresis.
Assay [11] concerns Fusarium oxysporum. The experiment in a line: Antifungal activity against Fusarium oxysporum after 3 to 4 days by serial dilution method. The following applies: for MIC: Fusarium oxysporum. In kind it is functional.
Assay [12] has as its system Enterococcus faecalis. The experiment in a line: Antibacterial activity against Enterococcus faecalis MTCC 3382 after 24 hr by disk diffusion method. The conditions noted are these: for MIC: Enterococcus faecalis, MTCC 3382, 24 h. In kind it is functional.
In assay [13] the test system is Candida albicans. The experiment in a line: Antifungal activity against Candida albicans after 3 to 4 days by serial dilution method. The following applies: for MIC: Candida albicans. In kind it is functional.
Assay [14] deals with Bacillus subtilis. Kind of assay: Antibacterial activity against Bacillus subtilis MTCC 297 after 24 hr by disk diffusion method. In kind it is functional. The conditions noted are these: for MIC: Bacillus subtilis, MTCC 297, 24 h.
Assay [15] concerns Escherichia coli. The experiment in a line: Antibacterial activity against Escherichia coli MTCC 1089 after 24 hr by disk diffusion method. In kind it is functional. The following applies: for MIC: Escherichia coli, MTCC 1089, 24 h.

Values after ≈ are worked out from the molar mass of the structure shown. Active and inactive are the calls of the source. The rule behind the calls is not given here.

Broadly, the MIC is the least concentration at which growth counts as inhibited. A higher MIC goes with a need for much substance. Turning to `O=c1cc(COc2cccc(O)c2)c2c(ccc3ccccc32)o1`, the “inhibition zone (IZ)” value in [1] is given as 15 mm; in assay [3], 11 mm; in assay [5], 13 mm; in [6], 15 mm; in [7] it was 18 mm; in assay [8] it was 17 mm. For the same compound, the “inhibition zone (IZ)” value in assay [9] came out at 16 mm; in [11], 12 mm; in assay [12] it was 14 mm; in assay [13], 14 mm; in assay [14] it was 12 mm; in assay [15], 12 mm. Besides, the MIC in assay [1] came to 12.5 µg/mL (≈ 39.3 µM); in [3], 25 µg/mL (≈ 78.5 µM); in assay [5], 25 µg/mL (≈ 78.5 µM); in [6], 12.5 µg/mL (≈ 39.3 µM); in assay [7], 12.5 µg/mL (≈ 39.3 µM); in assay [8] it was 12.5 µg/mL (≈ 39.3 µM). For the same compound, the minimal inhibitory concentration (MIC) came to 25 µg/mL (≈ 78.5 µM) in assay [9]; 25 µg/mL (≈ 78.5 µM) in assay [11]; 12.5 µg/mL (≈ 39.3 µM) in [12]; 12.5 µg/mL (≈ 39.3 µM) in assay [13]; 25 µg/mL (≈ 78.5 µM) in assay [14]; 25 µg/mL (≈ 78.5 µM) in [15]. The outcome in assay [2], in assay [4] and in [10] was inactive.
Regarding `CCN(CC)c1cccc(OCc2cc(=O)oc3ccc(C)cc23)c1`, the “inhibition zone (IZ)” value came out at 13 mm in [1]; 15 mm in assay [3]; 16 mm in assay [5]; 16 mm in assay [6]; 15 mm in assay [7]; 18 mm in assay [8]. Besides, the “inhibition zone (IZ)” value turned out to be 17 mm in [9]; 9 mm in assay [11]; 17 mm in [12]; 10 mm in assay [13]; 14 mm in [14]; 10 mm in assay [15]. The outcome in [2], in [4] and in [10] was inactive. The MIC in assay [3] amounted to 12.5 µg/mL (≈ 37 µM); in assay [5] it was 12.5 µg/mL (≈ 37 µM); in assay [6] it was 12.5 µg/mL (≈ 37 µM); in assay [7], 25 µg/mL (≈ 74.1 µM); in assay [8], 12.5 µg/mL (≈ 37 µM); in assay [9], 12.5 µg/mL (≈ 37 µM). Besides, the MIC came out at 50 µg/mL (≈ 148 µM) in assay [11]; 6.25 µg/mL (≈ 18.5 µM) in assay [12]; 25 µg/mL (≈ 74.1 µM) in assay [13]; 12.5 µg/mL (≈ 37 µM) in assay [14]; 50 µg/mL (≈ 148 µM) in assay [15].
As for `O=C(O)c1cn(C2CC2)c2cc(N3CCNCC3)c(F)cc2c1=O` [CIPROFLOXACIN], the “inhibition zone (IZ)” value was found to be 21 mm in [1]; 21 mm in assay [3]; 25 mm in assay [7]; 23 mm in [12]; 20 mm in assay [14]; 18 mm in [15]. The MIC in assay [1] is 6.25 µg/mL (≈ 18.9 µM); in assay [12] it was 6.25 µg/mL (≈ 18.9 µM); in assay [14], 6.25 µg/mL (≈ 18.9 µM); in assay [15], 12.5 µg/mL (≈ 37.7 µM).
For the compound `OC(Cn1cncn1)(Cn1cncn1)c1ccc(F)cc1F` [FLUCONAZOLE], the “inhibition zone (IZ)” value in assay [5] was found to be 22 mm; in assay [6], 22 mm; in [8], 24 mm; in assay [9], 23 mm; in assay [11], 17 mm; in assay [13] it was 20 mm. Moreover, the minimum inhibitory concentration (MIC) in assay [5] is 6.25 µg/mL (≈ 20.4 µM); in [6] it was 6.25 µg/mL (≈ 20.4 µM); in assay [8], 6.25 µg/mL (≈ 20.4 µM); in assay [9], 6.25 µg/mL (≈ 20.4 µM); in assay [11], 12.5 µg/mL (≈ 40.8 µM); in assay [13] it was 6.25 µg/mL (≈ 20.4 µM).

(Values after ChEMBL document CHEMBL3046568, “Synthesis, antimicrobial and DNA cleavage studies of some 4-aryloxymethylcoumarins obtained by reaction of 4-bromomethylcoumarins with bidentate nucleophiles” (2012).)
